Reference: PMC5365662, “A Short Double-Stapled Peptide Inhibits Respiratory Syncytial Virus Entry and Spreading” (Antimicrobial Agents and Chemotherapy, 2017)
Bridge positions count the residues as written; N and C are the ends. Square brackets hold non-standard residues; d marks the D form. Peptide text beside a SMILES is read from it. S5 = C=CCCC[C@](C)(N)C(=O)O

Experiments:
[1] = Proteolytic stability assay, trypsin; assay type: in vitro ADME; conditions: trypsin (isolated protease); 100 mM Tris-HCl pH 8.0, 10 mM CaCl2, 25°C; LC-MS of intact peptide, exponential decay fit; 3 experiments
Protocol: (§1) This is an important parameter to assess for the development of peptide therapeutics. Peptides 4bb, 4ca, and 4a, and the unstapled analog peptide 4, as well as both SAH-RSVFBD isomers, were treated with chymotrypsin or trypsin, and the samples were analyzed by LC/MS to quantify the reaction products over time. […] In comparison, both SAH-RSVFBD isomers were more susceptible to proteolytic degradation, with half-lives of approximately 7 h and 5 min against chymotrypsin and trypsin, respectively.
(§2) In vitro proteolytic degradation was measured via LC-MS using an Agilent Infinity 1280 UHPLC system coupled to an Agilent quadrupole time of flight (QTOF) 6530 instrument with an Agilent Jet Stream electrospray ionization (AJS ESI) source (all from Agilent Technologies, Waldbronn, Germany). Five microliters of digested sample was injected onto a C18 column (Zorbax Eclipse Plus RRHD, 1.8 μm, 2.1 by 100 mm; Agilent Technologies, Waldbronn, Germany) equilibrated with solvent A (5% acetonitrile, 0.2% formic acid) and eluted with a flow rate of 0.4 ml/min over a 5 to 95% gradient of solvent B (95% acetonitrile, 0.2% formic acid) in 5 min, followed by 1.5 min at 95% and 0.5 min posttime. The AJS ESI source was operated with a capillary voltage of 4,000 V and a nozzle voltage of 600 V with a drying gas temperature of 325°C and flow rate of 10 liters/min, nebulizing gas pressure of 20 lb/in^2, and a sheath gas temperature of 300°C and flow rate of 11 liters/min. Mass spectra were acquired in the positive-ion mode from 100 to 3,200 m/z at a rate of 1 scan per second in extended dynamic range (2 GHz) mode. The fragmentor, skimmer, and octopole RF voltages were set to 200, 60, and 750 V, respectively. Data were acquired and analyzed with the Agilent MassHunter Workstation (version B.05).
Peptide digestion was performed as follows: 10 μl of peptide at 0.29 mM in 50:50 acetonitrile-water was dissolved in 990 μl 100 mM Tris-HCl (pH 8.0) with 10 mM CaCl2. Following measurement of the undigested (t0) sample, 10 μl of chymotrypsin at 50 μg/ml in 100 mM Tris-HCl (pH 8.0) with 10 mM CaCl2 was added, and the sample was vortexed and placed immediately in the autosampler, set to 25°C. The level of intact peptide was quantified by serial injection over time. […] The value of the fit at t = 0 min was used to calculate the percentage of the intact peptide at each point as follows: Percent intact (t) = [Vol (t)/Volt0] × 100, where Vol is the total volume calculated using Find Compounds by Molecular Feature and Volt0 is the value of the fit at time t = 0. A plot of the intact peptide MFE peak area over time gave an exponential decay curve, from which the half-life was determined using MatLab […].

[2] = test system: recombinant GFP-expressing RSV (strain A2) in A549 cells; assay type: cell-based, human respiratory syncytial virus; conditions: cellular RSV-eGFP assay, data not shown
Protocol: A549 cells were infected with a recombinant green fluorescent protein (GFP)-expressing RSV (strain A2) ([23]), and the inhibitory activity of the peptide was quantified by flow cytometry.
Each peptide was diluted 3 times by 2-fold serial dilutions. eGFP RSV virus at an MOI of 0.5 was used for the infection, and GFP-positive cells were counted by FACS analysis 24 h p.i. The GFP data were normalized to the fluorescence values observed with virus only and plotted as percent inhibition.
Serial 4-fold dilutions of inhibitors were mixed with eGFP-encoding RSV virus ([23]) with a volume of virus required to achieve approximately 50% of infection in medium containing 2% fetal calf serum. The resulting mixture was added to 24-well plates containing A549 cells. Cells were incubated for 2 h at 37°C, the medium was replaced, and cells were incubated for an additional 24 h. Cells were treated with 300 μl of trypsin for 10 min at 37°C, and the detached cells were diluted in 1 ml of culture medium. Following centrifugation at 1,700 rpm, the pellet was resuspended in 300 μl of PBS–1% fetal bovine serum (FBS) (vol/vol) and GFP-positive cells were counted by fluorescence-activated cell sorter (FACS) analysis. The GFP data were normalized to the fluorescence value observed with virus only. The resulting inhibition curves were fitted in Igor Pro as described above.

[3] = Far-UV circular dichroism, α-helical content; assay type: physicochemical; conditions: CD, 10 mM phosphate buffer pH 7.5, 50 μM peptide, 25°C
Protocol: The circular dichroism spectra were acquired on a Chirascan spectropolarimeter. The samples were prepared in 10 mM phosphate buffer, pH 7.5, at a peptide concentration of 50 μM. Data were recorded at 25°C by step scan from 180 nm to 260 nm in a 0.5-mm path length quartz cell using 1-nm wavelength increments and a response time of 1 s. The data were converted to per residue molar ellipticity units [θ] (degree per square centimeter per decimole per residue) and smoothed using the Igor Pro software. The percentage of helicity was calculated as described previously ([35]).

[4] = Proteolytic stability assay, chymotrypsin; assay type: in vitro ADME; conditions: chymotrypsin (isolated protease); 10 μl peptide 0.29 mM in 990 μl 100 mM Tris-HCl pH 8.0, 10 mM CaCl2; 10 μl chymotrypsin 50 μg/ml; 25°C; LC-MS of intact peptide, exponential decay fit; 3 experiments
Protocol: as §1, §2
(§3) Peptide digestion was performed as follows: 10 μl of peptide at 0.29 mM in 50:50 acetonitrile-water was dissolved in 990 μl 100 mM Tris-HCl (pH 8.0) with 10 mM CaCl2. Following measurement of the undigested (t0) sample, 10 μl of chymotrypsin at 50 μg/ml in 100 mM Tris-HCl (pH 8.0) with 10 mM CaCl2 was added, and the sample was vortexed and placed immediately in the autosampler, set to 25°C. The level of intact peptide was quantified by serial injection over time. Integration of the intact peptide compound chromatogram was performed using the Agilent Molecular Feature Extraction (MFE) algorithm. The value of the fit at t = 0 min was used to calculate the percentage of the intact peptide at each point as follows: Percent intact (t) = [Vol (t)/Volt0] × 100, where Vol is the total volume calculated using Find Compounds by Molecular Feature and Volt0 is the value of the fit at time t = 0. A plot of the intact peptide MFE peak area over time gave an exponential decay curve, from which the half-life was determined using MatLab […].

RSV = conditions: cited from earlier work
Text: The RSV fusion glycoprotein (F) is the focus of active research in the field of vaccines, neutralizing antibodies, and small molecules. […] RSV F is a type I fusion protein that is activated into a metastable prefusion state upon cleavage by host proteases. The prefusion state contains a hydrophobic fusion peptide, ...

[5] = test system: rHRSV-mCherry in HEp-2 cells; test: rHRSV-mCherry inhibition assay; assay type: cell-based, human respiratory syncytial virus; conditions: HEp-2 cells
Summary of the method: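 HEp-2 cells infected at MOI 0.2 with rHRSV-mCherry preincubated 15–20 min with serially diluted peptide, peptide kept in 2% FBS medium for 48 h at 37°C. Replication read as mCherry fluorescence (ex 580/em 620 nm), normalized to untreated infected cells; duplicates, curves fitted.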

chymotrypsin = test: Proteolytic stability assay, chymotrypsin; assay type: in vitro ADME; conditions: treated with chymotrypsin or trypsin, LC/MS
Protocol: as §1, §2, §3

[6] = all solvents tested
[7] = RSV-Cherry MOI 0.2, peptide and virus removed after infection and fresh peptide added, mCherry fluorescence 48 h p.i., at least twice in duplicate

| Compound | half-life [1] [min] | % Helicity ([3]; Table 2) [%] | % Helicity ([3]; Table 3 (Ala scan)) [%] | half-life at 2.9 µM [4] [h] | EC50 [5, 7] [nM] | other results |
| --- | --- | --- | --- | --- | --- | --- |
| CC[C@H](C)[C@H](NC(=O)[C@H](CCCCN)NC(=O)[C@H](CCC(=O)O)NC(C)=O)C(=O)N[C@@H](CC(N)=O)C(=O)N[C@@H](CCC(N)=O)C(=O)N[C@@H](CO)C(=O)N[C@@H](CC(C)C)C(=O)N[C@@]1(C)CCCC=CCCC[C@@](C)(C(=O)N[C@@H](CO)C(=O)N[C@@H](CC(=O)O)C(=O)N[C@@]2(C)CCCC=CCCC[C@@](C)(C(=O)N[C@H](C(N)=O)C(C)C)NC(=O)[C@H](Cc3c[nH]cn3)NC(=O)[C@H](CC(C)C)NC(=O)[C@H](CC(C)C)NC2=O)NC(=O)[C@H](CCCNC(=N)N)NC(=O)[C@H]([C@@H](C)CC)NC(=O)[C@H](Cc2ccccc2)NC1=O [Peptide 4a] (Ac-EKINQSL[S5]FIR[S5]SD[S5]LLH[S5]V-NH2; staple 8-12, 15-19) | 78 | 23.5 | 64 | 74.7 |  | potency relative to hit peptide 3ac [2]: twice more potent |
| Cc1cn2nc([C@@H]3CCCCN3C(=O)c3cc(Cl)ccc3NS(C)(=O)=O)cc2nc1N1CC[C@H](N)C1 [GS-5806] |  |  |  |  |  | EC50 (RSV): 0.4 nM |
| CC[C@H](C)[C@H](NC(=O)[C@H](Cc1ccccc1)NC(=O)[C@H](C)NC(=O)[C@H](CC(C)C)NC(=O)[C@H](CO)NC(=O)[C@H](CCC(N)=O)NC(=O)[C@H](CC(N)=O)NC(=O)[C@@H](NC(=O)[C@H](CCCCN)NC(=O)[C@H](CCC(=O)O)NC(C)=O)[C@@H](C)CC)C(=O)N[C@@H](CCCNC(=N)N)C(=O)N[C@@H](CCCCN)C(=O)N[C@@H](CO)C(=O)N[C@@H](CC(=O)O)C(=O)N[C@@H](CCC(=O)O)C(=O)N[C@@H](CC(C)C)C(=O)N[C@@H](CC(C)C)C(=O)N[C@@H](Cc1c[nH]cn1)C(=O)N[C@@H](CC(N)=O)C(=O)N[C@H](C(N)=O)C(C)C [Peptide 4] (Ac-EKINQSLAFIRKSDELLHNV-NH2) | 4.8 |  |  | 0.08 | > 50000 | time to full degradation (chymotrypsin): ≤ 10 min |
| CC[C@H](C)[C@H](NC(=O)[C@H](CCCCN)NC(=O)[C@H](CCC(=O)O)NC(C)=O)C(=O)N[C@@]1(C)CCCC=CCCC[C@@](C)(C(=O)N[C@@H](Cc2ccccc2)C(=O)N[C@H](C(=O)N[C@@]2(C)CCCC=CCCC[C@@](C)(C(=O)N[C@@H](CC(C)C)C(=O)N[C@@H](CC(C)C)C(=O)N[C@@H](Cc3c[nH]cn3)C(=O)N[C@@H](CC(N)=O)C(=O)N[C@H](C(N)=O)C(C)C)NC(=O)[C@H](CC(=O)O)NC(=O)[C@H](CO)NC(=O)[C@H](CCCCN)NC2=O)[C@@H](C)CC)NC(=O)[C@H](CC(C)C)NC(=O)[C@H](CO)NC(=O)[C@H](CCC(N)=O)NC1=O [Peptide 4bb] (Ac-EKI[S5]QSL[S5]FI[S5]KSD[S5]LLHNV-NH2; staple 4-8, 11-15) | 18 | 48.1 | 53 | 50.1 | 740 ± 270 | EC50 ([5]; Table 3 (Ala scan), rHRSV-mCherry MOI 0.2, 2-fold serial dilutions (11 dilutions), duplicate, ± SD of fit): 670 ± 70 nM |
| CC[C@H](C)[C@H](NC(=O)[C@H](Cc1ccccc1)NC(=O)[C@H](C)NC(=O)[C@H](CC(C)C)NC(=O)[C@H](CO)NC(=O)[C@H](CCC(N)=O)NC(=O)[C@H](CC(N)=O)NC(=O)[C@@H](NC(=O)[C@H](CCCCN)NC(=O)[C@H](CCC(=O)O)NC(=O)[C@H](CC(N)=O)NC(=O)[C@@H](NC(=O)[C@H](CCC(N)=O)NC(=O)[C@H](CO)NC(=O)[C@@H](NC(=O)[C@H](CCC(=O)O)NC(C)=O)[C@@H](C)CC)C(C)C)[C@@H](C)CC)C(=O)N[C@@H](CCCNC(=N)N)C(N)=O [Peptide 2] (Ac-EISQVNEKINQSLAFIR-NH2) |  |  |  |  |  | solubility [6]: insoluble in all solvents tested |
